According to patent US20030104507A1, “Method for detection of ATP” (priority 2001, published 2003):

Test system: ATPase activity endogenous to L929 cell lysate
Experiment: Detergent inhibition of ATPase endogenous to L929 cell lysate (ATP remaining by luciferase luminescence, 22° C.)
Format: biochemical
Parameters: key to Relative ATPase Activity, slope det/slope lysate: slope with detergent / slope without; ≥1.0 = 100% activity, 0.5 = 50%
Details: for concentrations which resulted in a 25% or greater decrease in the relative ATPase activity: compared to reactions in the absence of detergent
Method in brief: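 L929 lysate (1.5×10^5 cells/ml, four freeze–thaw cycles) held with detergent at final 1.0, 0.5, 0.1 or 0.05% at 22° C; remaining ATP read over time with luciferase-luciferin reagent (100 μM luciferin, 10 mM MgSO4, pH 7.5). Relative ATPase activity = slope of log % ATP remaining vs time with detergent ÷ slope for lysate-only control.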

[1] = Example 2, 0.002% detergent, 5 min
[2] = Example 2, 0.002% detergent, 75 min
[3] = Example 2, 0.002% detergent, 169 min
[4] = Example 2, 0.002% detergent, 222 min
[5] = Example 2, 0.002% detergent, 260 min
[6] = Example 2, 0.01% detergent, 5 min
[7] = Example 2, 0.01% detergent, 75 min
[8] = Example 2, 0.01% detergent, 169 min
[9] = Example 2, 0.01% detergent, 222 min
[10] = Example 2, 0.01% detergent, 260 min
[11] = Example 2, 0.02% detergent, 5 min
[12] = Example 2, 0.02% detergent, 75 min
[13] = Example 2, 0.02% detergent, 169 min
[14] = Example 2, 0.02% detergent, 222 min
[15] = Example 2, 0.02% detergent, 260 min

SMILES: CCCCCCCCCCCCOS(=O)(=O)[O-].[Na+] [SDS, Sodium dodecyl sulfate]
- Relative ATPase Activity, slope det/slope lysate (0.002 percent detergent): 1.010
- Slope (log percent ATP remaining vs time in minutes) (0.002 percent detergent): −0.0064
- Relative ATPase Activity, slope det/slope lysate (0.01 percent detergent): 0.702
- Slope (log percent ATP remaining vs time in minutes) (0.01 percent detergent): −0.00385
- Average Relative Light Unit Values (0.05% detergent, 5 min): 1181.17 rlu
- Percent ATP Remaining (0.05% detergent, 5 min): 100%
- Average Relative Light Unit Values (0.05% detergent, 75 min): 1060.03 rlu
- Percent ATP Remaining (0.05% detergent, 75 min): 89.7%
- Average Relative Light Unit Values (0.05% detergent, 169 min): 949.7 rlu
- Percent ATP Remaining (0.05% detergent, 169 min): 80.4%
- Average Relative Light Unit Values (0.05% detergent, 222 min): 921.86 rlu
- Percent ATP Remaining (0.05% detergent, 222 min): 78.0%
- Average Relative Light Unit Values (0.05% detergent, 260 min): 803.0 rlu
- Percent ATP Remaining (0.05% detergent, 260 min): 68.0%
- Relative ATPase Activity, slope det/slope lysate (0.05 percent detergent): 0.105
- Slope (log percent ATP remaining vs time in minutes) (0.05 percent detergent): −0.0006
- Average Relative Light Unit Values (0.1% detergent, 5 min): 0.31 rlu
- Average Relative Light Unit Values (0.1% detergent, 75 min): 0.18 rlu
- Average Relative Light Unit Values (0.1% detergent, 169 min): 0.21 rlu
- Average Relative Light Unit Values (0.1% detergent, 222 min): 0.26 rlu
- Average Relative Light Unit Values (0.1% detergent, 260 min): 0.34 rlu
- Average Relative Light Unit Values (0.5% detergent, 5 min): 0.00 rlu
- Average Relative Light Unit Values (0.5% detergent, 75 min): 0.00 rlu
- Average Relative Light Unit Values (0.5% detergent, 169 min): 0.02 rlu
- Average Relative Light Unit Values (0.5% detergent, 222 min): 0.00 rlu
- Average Relative Light Unit Values (0.5% detergent, 260 min): 0.00 rlu
- Average Relative Light Unit Values (1.0% detergent, 5 min): 0.01 rlu
- Average Relative Light Unit Values (1.0% detergent, 75 min): 0.00 rlu
- Average Relative Light Unit Values (1.0% detergent, 169 min): 0.01 rlu
- Average Relative Light Unit Values (1.0% detergent, 222 min): 0.00 rlu
- Average Relative Light Unit Values (1.0% detergent, 260 min): 0.01 rlu
- Average Relative Light Unit Values [1]: 5773.39 rlu
- Percent ATP Remaining [1]: 100.00%
- Average Relative Light Unit Values [2]: 1574.34 rlu
- Percent ATP Remaining [2]: 27.27%
- Average Relative Light Unit Values [3]: 278.67 rlu
- Percent ATP Remaining [3]: 4.83%
- Average Relative Light Unit Values [4]: 236.28 rlu
- Percent ATP Remaining [4]: 4.09%
- Average Relative Light Unit Values [5]: 128.58 rlu
- Percent ATP Remaining [5]: 2.23%
- Average Relative Light Unit Values [6]: 13116.20 rlu
- Percent ATP Remaining [6]: 100.00%
- Average Relative Light Unit Values [7]: 10753.03 rlu
- Percent ATP Remaining [7]: 48.62%
- Average Relative Light Unit Values [8]: 12051.63 rlu
- Percent ATP Remaining [8]: 25.80%
- Average Relative Light Unit Values [9]: 11822.03 rlu
- Percent ATP Remaining [9]: 14.20%
- Average Relative Light Unit Values [10]: 11900.73 rlu
- Percent ATP Remaining [10]: 8.79%
- times more ATP present in the sample after four hours when the detergent was present than when it was absent (SDS 0.05%, deoxycholate 0.5% and 0.1%): about three to about twenty
- concentrations which resulted in a 25% or greater decrease in the relative ATPase activity: ≥ 0.01%

SMILES: CCCCCCCCCCCC[N+](C)(C)CCCS(=O)(=O)[O-] [Sulfobetaine 3-10, N-Dodecyl-N,N-dimethyl-3-ammonio-1-propanesulfonate]
- Relative ATPase Activity, slope det/slope lysate (0.02 percent detergent): 1.009
- Slope (log percent ATP remaining vs time in minutes) (0.02 percent detergent): −0.0064
- Average Relative Light Unit Values (0.05% detergent, 5 min): 6247.31 rlu
- Percent ATP Remaining (0.05% detergent, 5 min): 100%
- Average Relative Light Unit Values (0.05% detergent, 75 min): 2270.13 rlu
- Percent ATP Remaining (0.05% detergent, 75 min): 36.3%
- Average Relative Light Unit Values (0.05% detergent, 169 min): 1053.56 rlu
- Percent ATP Remaining (0.05% detergent, 169 min): 16.9%
- Average Relative Light Unit Values (0.05% detergent, 222 min): 465.03 rlu
- Percent ATP Remaining (0.05% detergent, 222 min): 7.4%
- Average Relative Light Unit Values (0.05% detergent, 260 min): 233.19 rlu
- Percent ATP Remaining (0.05% detergent, 260 min): 3.7%
- Relative ATPase Activity, slope det/slope lysate (0.05 percent detergent): 1.077
- Slope (log percent ATP remaining vs time in minutes) (0.05 percent detergent): −0.0057
- Average Relative Light Unit Values (0.1% detergent, 5 min): 6506.61 rlu
- Percent ATP Remaining (0.1% detergent, 5 min): 100%
- Average Relative Light Unit Values (0.1% detergent, 75 min): 2367.27 rlu
- Percent ATP Remaining (0.1% detergent, 75 min): 36.4%
- Average Relative Light Unit Values (0.1% detergent, 169 min): 1100.37 rlu
- Percent ATP Remaining (0.1% detergent, 169 min): 16.9%
- Average Relative Light Unit Values (0.1% detergent, 222 min): 446.29 rlu
- Percent ATP Remaining (0.1% detergent, 222 min): 6.9%
- Average Relative Light Unit Values (0.1% detergent, 260 min): 222.22 rlu
- Percent ATP Remaining (0.1% detergent, 260 min): 3.4%
- Relative ATPase Activity, slope det/slope lysate (0.10 percent detergent): 1.109
- Slope (log percent ATP remaining vs time in minutes) (0.10 percent detergent): −0.0058
- Average Relative Light Unit Values (0.5% detergent, 5 min): 6565.98 rlu
- Percent ATP Remaining (0.5% detergent, 5 min): 100%
- Average Relative Light Unit Values (0.5% detergent, 75 min): 2405.95 rlu
- Percent ATP Remaining (0.5% detergent, 75 min): 36.6%
- Average Relative Light Unit Values (0.5% detergent, 169 min): 1211.13 rlu
- Percent ATP Remaining (0.5% detergent, 169 min): 18.4%
- Average Relative Light Unit Values (0.5% detergent, 222 min): 609.75 rlu
- Percent ATP Remaining (0.5% detergent, 222 min): 9.3%
- Average Relative Light Unit Values (0.5% detergent, 260 min): 391.64 rlu
- Percent ATP Remaining (0.5% detergent, 260 min): 6.0%
- Relative ATPase Activity, slope det/slope lysate (0.50 percent detergent): 0.921
- Slope (log percent ATP remaining vs time in minutes) (0.50 percent detergent): −0.0049
- Average Relative Light Unit Values (1.0% detergent, 5 min): 7861.36 rlu
- Percent ATP Remaining (1.0% detergent, 5 min): 100%
- Average Relative Light Unit Values (1.0% detergent, 75 min): 5703.51 rlu
- Percent ATP Remaining (1.0% detergent, 75 min): 72.6%
- Average Relative Light Unit Values (1.0% detergent, 169 min): 4318.46 rlu
- Percent ATP Remaining (1.0% detergent, 169 min): 54.9%
- Average Relative Light Unit Values (1.0% detergent, 222 min): 3075.12 rlu
- Percent ATP Remaining (1.0% detergent, 222 min): 39.1%
- Average Relative Light Unit Values (1.0% detergent, 260 min): 2193.02 rlu
- Percent ATP Remaining (1.0% detergent, 260 min): 27.9%
- Relative ATPase Activity, slope det/slope lysate (1.00 percent detergent): 0.417
- Slope (log percent ATP remaining vs time in minutes) (1.00 percent detergent): −0.0022
- Average Relative Light Unit Values [11]: 6120.5 rlu
- Percent ATP Remaining [11]: 100.00%
- Average Relative Light Unit Values [12]: 1622.61 rlu
- Percent ATP Remaining [12]: 26.51%
- Average Relative Light Unit Values [13]: 291.09 rlu
- Percent ATP Remaining [13]: 4.76%
- Average Relative Light Unit Values [14]: 245.55 rlu
- Percent ATP Remaining [14]: 4.01%
- Average Relative Light Unit Values [15]: 136.43 rlu
- Percent ATP Remaining [15]: 2.23%
- concentrations which resulted in a 25% or greater decrease in the relative ATPase activity: ≥ 1%
